According to patent EP0745595A1, “3-(3-Aryloxyphenyl)-1-(substituted methyl)-s-triazine-2,4,6-oxo or thiotrione herbicidal agents” (American Cyanamid Company, priority 1995, dated 1996):

Legend:
Type in all cases: in vivo
[1] = system: ORYZA SATIVA, L. TEBONNET; experiment: Postemergence herbicidal evaluation, ORYSAT (Rice, Tebonnet); set-up: key: 0-9 visual rating scale vs untreated control
Method in brief: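 Rice (Tebonnet) seedlings raised in jiffy flats for roughly two weeks were sprayed postemergence at 40 psi with compound dispersed in 50/50 acetone/water containing 0.5% TWEEN®20. The plants were then kept on greenhouse benches under standard care and visually scored on a 0-9 scale against a control four to five weeks after treatment.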

CASSIA OBTUSIFOLIA, L. [2] = experiment: Preemergence herbicidal evaluation, CASOB (Sicklepod); details: four to five weeks after treatment
Method in brief: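 Seeds of various monocot and dicot plants, including sicklepod, were each mixed with potting soil and sown on roughly one inch of soil in separate pint cups for preemergence testing. Treated cups were kept on greenhouse benches, watered and maintained conventionally. Four to five weeks after treatment, each cup was visually rated on a 0-9 scale against a control.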

[3] = system: ECHINOCHLOA ORYZOIDES (ARD.)FRITSCH; experiment: Preemergence weed control under flooded paddy conditions, ECHORC (Watergrass (Calif.)); details: preemergence weeds, rated three to four weeks after treatment
Method in brief: (§1)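 Seeds or propagules were planted 0.5 cm deep in silt loam, with flood water held at 1.5 to 3 cm. Compound in 50/50 aqueous/acetone was pipetted into the flood water at about 0.5, 0.25, 0.125 and 0.063 kg/ha. Injury was rated visually on a 0-9 scale against a control 3-4 weeks after treatment.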

[…], PRESL. = Preemergence weed control under flooded paddy conditions, MOOVA (Monochoria); details: preemergence weeds, rated three to four weeks after treatment
Method in brief: as §1

CYPERUS IRIA = experiment: Preemergence weed control under flooded paddy conditions, CYPIR (Rice Flatsedge); details: preemergence weeds, rated three to four weeks after treatment
Method in brief: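 Seeds or propagating organs of rice flatsedge were planted in the top 0.5 cm of silt loam soil in 32 oz. plastic containers, 10.5 cm across and without drainage holes. Water was kept 1.5 to 3 cm above the soil throughout. Treated containers were kept on greenhouse benches, and herbicidal effect was visually rated on a 0-9 scale against a control.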

[4] = system: GLYCINE MAX(L) MERR. CV. WILLIAMS; experiment: Postemergence herbicidal evaluation, GLXMAW (Soybean, Williams); set-up: key to GLXMAW rating / Herbicidal effect rating, GLXMAW / GLXMAW: 0-9 visual rating scale vs untreated control
Method in brief: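 Soybean seedlings (Williams) were raised in jiffy flats for roughly two weeks, then sprayed postemergence through a nozzle at 40 psi with test compound dispersed in 50/50 acetone/water containing 0.5% TWEEN®20. Treated plants were kept on greenhouse benches under normal care and visually rated on a 0-9 scale four to five weeks later.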

GALIUM APARINE = experiment: Preemergence herbicidal evaluation, GALAP (Galium); details: four to five weeks after treatment
Method in brief: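 Seeds sown in potting soil cups, then sprayed preemergence with aqueous acetone compound solution at about 0.125 to 0.50 kg per hectare. Greenhouse-grown, rated 4–5 weeks after treatment on a 0–9 visual scale against control.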

CASSIA OBTUSIFOLIA, L. [5] = experiment: Postemergence herbicidal evaluation, CASOB (Sicklepod); set-up: key to CASOB rating / Herbicidal effect rating, CASOB / CASOB: 0-9 visual rating scale vs untreated control; details: for CASOB, herbicide rating (0-9): rated four to five weeks after treatment, averaged
Method in brief: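 Seedlings about two weeks old were sprayed with compound in 50/50 acetone/water containing 0.5% Tween 20 at about 0.125-0.500 kg/ha and kept in the greenhouse. Visual injury was rated on a 0-9 scale versus control 4-5 weeks after treatment; repeat tests were averaged.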

SAGITTARIA PYGMAEA, L. = experiment: Preemergence weed control under flooded paddy conditions, SAGPY (Arrowhead (Pygmaea)); details: for SAGPY: pre-weed; for SAGPY herbicidal rating: preemergence weeds, rated three to four weeks after treatment
Method in brief: as §1

COC(=O)Cn1c(=O)n(C)c(=O)n(-c2cc(Oc3c(F)cc(C(F)(F)F)cc3Cl)ccc2Br)c1=O [Compound 2, Methyl 3-{2-bromo-5-[(2-chloro-α,α,α,6-tetrafluoro-p-tolyl)oxy]phenyl}tetrahydro-5-methyl-2,4,6-trioxo-s-triazine-1(2H)-acetate]
Herbicidal effect rating, ORYSAT ([1]; 0.063 kg/ha): 6.3
Herbicidal effect rating, ORYSAT ([1]; 0.125 kg/ha): 6.3
Herbicidal effect rating, ORYSAT ([1]; 0.250 kg/ha): 7.0
Herbicidal effect rating, ORYSAT ([1]; 0.500 kg/ha): 7.5
CASOB rating (CASSIA OBTUSIFOLIA, L. [2]; Rate 0.125 kg/ha): 9.0
CASOB rating (CASSIA OBTUSIFOLIA, L. [2]; Rate 0.250 kg/ha): 9.0
CASOB rating (CASSIA OBTUSIFOLIA, L. [2]; Rate 0.500 kg/ha): 9.0
ECHORC herbicidal rating ([3]; Rate 0.063 kg/ha): 9.0
ECHORC herbicidal rating ([3]; Rate 0.125 kg/ha): 9.0
ECHORC herbicidal rating ([3]; Rate 0.250 kg/ha): 9.0
ECHORC herbicidal rating ([3]; Rate 0.500 kg/ha): 9.0
MOOVA herbicidal rating ([…], PRESL.; Rate 0.063 kg/ha): 9.0
MOOVA herbicidal rating ([…], PRESL.; Rate 0.125 kg/ha): 9.0
MOOVA herbicidal rating ([…], PRESL.; Rate 0.250 kg/ha): 9.0
MOOVA herbicidal rating ([…], PRESL.; Rate 0.500 kg/ha): 9.0
CYPIR herbicidal rating (CYPERUS IRIA; Rate 0.063 kg/ha): 9.0
CYPIR herbicidal rating (CYPERUS IRIA; Rate 0.125 kg/ha): 9.0
CYPIR herbicidal rating (CYPERUS IRIA; Rate 0.250 kg/ha): 9.0
CYPIR herbicidal rating (CYPERUS IRIA; Rate 0.500 kg/ha): 9.0
Herbicidal effect rating, GLXMAW ([4]; 0.063 kg/ha): 6.9
Herbicidal effect rating, GLXMAW ([4]; 0.125 kg/ha): 7.2
Herbicidal effect rating, GLXMAW ([4]; 0.250 kg/ha): 8.0
Herbicidal effect rating, GLXMAW ([4]; 0.500 kg/ha): 8.3
GALAP rating (GALIUM APARINE; Rate 0.125 kg/ha): 9.0
GALAP rating (GALIUM APARINE; Rate 0.250 kg/ha): 9.0
GALAP rating (GALIUM APARINE; Rate 0.500 kg/ha): 9.0
Herbicidal effect rating, CASOB (CASSIA OBTUSIFOLIA, L. [5]; 0.063 kg/ha): 9.0
Herbicidal effect rating, CASOB (CASSIA OBTUSIFOLIA, L. [5]; 0.125 kg/ha): 9.0
Herbicidal effect rating, CASOB (CASSIA OBTUSIFOLIA, L. [5]; 0.250 kg/ha): 9.0
Herbicidal effect rating, CASOB (CASSIA OBTUSIFOLIA, L. [5]; 0.500 kg/ha): 9.0
CASOB, herbicide rating (0-9) (CASSIA OBTUSIFOLIA, L. [5]; Rate 0.125 kg/ha): 9.0
CASOB, herbicide rating (0-9) (CASSIA OBTUSIFOLIA, L. [5]; Rate 0.250 kg/ha): 9.0
CASOB, herbicide rating (0-9) (CASSIA OBTUSIFOLIA, L. [5]; Rate 0.500 kg/ha): 9.0

COC(=O)Cn1c(=O)n(C)c(=O)n(-c2cc(Oc3ccc(C(F)(F)F)cc3Cl)ccc2[N+](=O)[O-])c1=O [Compound 3, Methyl 3-{5-[(2-chloro-α,α,α-trifluoro-p-tolyl)oxy]-2-nitrophenyl}tetrahydro-5-methyl-2,4,6-trioxo-s-triazine-1(2H)-acetate]
Herbicidal effect rating, ORYSAT ([1]; 0.031 kg/ha): 4.9
Herbicidal effect rating, ORYSAT ([1]; 0.063 kg/ha): 5.1
Herbicidal effect rating, ORYSAT ([1]; 0.125 kg/ha): 5.7
Herbicidal effect rating, ORYSAT ([1]; 0.250 kg/ha): 6.6
Herbicidal effect rating, GLXMAW ([4]; 0.031 kg/ha): 4.8
Herbicidal effect rating, GLXMAW ([4]; 0.063 kg/ha): 5.3
Herbicidal effect rating, GLXMAW ([4]; 0.125 kg/ha): 5.9
Herbicidal effect rating, GLXMAW ([4]; 0.250 kg/ha): 6.3
GALAP rating (GALIUM APARINE; Rate 0.125 kg/ha): 7.3
GALAP rating (GALIUM APARINE; Rate 0.250 kg/ha): 8.4
GALAP rating (GALIUM APARINE; Rate 0.500 kg/ha): 9.0
SAGPY (SAGITTARIA PYGMAEA, L.; Rate 0.031 kg/ha): 0.0
SAGPY (SAGITTARIA PYGMAEA, L.; Rate 0.063 kg/ha): 0.0
SAGPY (SAGITTARIA PYGMAEA, L.; Rate 0.125 kg/ha): 0.0
SAGPY (SAGITTARIA PYGMAEA, L.; Rate 0.250 kg/ha): 0.0
SAGPY herbicidal rating (SAGITTARIA PYGMAEA, L.; Rate 0.063 kg/ha): 0.0
SAGPY herbicidal rating (SAGITTARIA PYGMAEA, L.; Rate 0.125 kg/ha): 0.0
SAGPY herbicidal rating (SAGITTARIA PYGMAEA, L.; Rate 0.250 kg/ha): 0.0
SAGPY herbicidal rating (SAGITTARIA PYGMAEA, L.; Rate 0.500 kg/ha): 0.0
Herbicidal effect rating, CASOB (CASSIA OBTUSIFOLIA, L. [5]; 0.031 kg/ha): 7.7
Herbicidal effect rating, CASOB (CASSIA OBTUSIFOLIA, L. [5]; 0.063 kg/ha): 8.4
Herbicidal effect rating, CASOB (CASSIA OBTUSIFOLIA, L. [5]; 0.125 kg/ha): 8.8
Herbicidal effect rating, CASOB (CASSIA OBTUSIFOLIA, L. [5]; 0.250 kg/ha): 8.4
